Ends that are not written are not given here.
Legend:
HIV-1IIIB = experiment: HIV-1 antiviral assay in CEM-SS cells (MTS); format: cell-based; settings: positive controls; CEM-SS cells plus HIV-1IIIB
HCMV strain AD169 = experiment: HCMV plaque formation assay in MRC-5 cells; settings: 10 micrograms per ml, 7-10 days
[1] = system: hepatitis B virus (HBV) ayw strain; experiment: HBV assay in HepG2-2.2.15 cells (TaqMan PCR of HBV DNA); format: cell-based; settings: 10 micrograms per ml, six days
Source text: HepG2-2.2.15 is a stable cell line containing the hepatitis B virus (HBV) ayw strain genome (ATCC Cat. No. CRL-11997). Antiviral compounds blocking any late step of viral replication such as transcription, translation, pregenome encapsidation, reverse transcription, particle assembly and release can be identified and characterized using this cell line. In this assay, an active compound will reduce the production of secreted HBV from cells, measured by utilizing real time quantitative PCR (TaqMan) assay to directly and accurately measure HBV DNA copies.
HepG2-2.2.15 cells were plated in 96-well microtiter plates. After 16-24 hours the confluent monolayer of HepG2-2.2.15 cells was washed and the medium was replaced with complete medium containing test peptides—10 micrograms per ml—in duplicate. […] Six days following the initial administration of the peptides, the cell culture supernatants was collected, treated with pronase and DNAse and then used in a real-time quantitative TaqMan PCR assay. The PCR-amplified HBV DNA was detected in real-time by monitoring increases in fluorescence signals that result from the exonucleolytic degradation of a quenched fluorescence probe molecule that hybridizes to the mplified HBV DNA. […] Antiviral activity was calculated from the reduction in HBV DNA levels (% virus control). […]

[2] = system: Primary Human endothelial cells (HUVEC); experiment: Endothelial cell migration assay; settings: 10 micrograms per ml, 22 hours, combination peptide 1:peptide 2 0.95 mole:1.05 mole
Description: Primary Human endothelial cells (HUVEC) were seeded in insert chambers with 3 micrometer pore size of multi-transwell plate for 6 hours at 37° C. in Endothelial Cell Basal Medium (EBM) supplemented with 0.1% bovine serum albumin. Thereafter, designated concentration of testing peptides—10 micrograms per ml—was added in duplicate wells. The endothelia were allowed to migrate for 22 hours at 37° C., then, migrated cells were fixed and stained with Hoechst 33342 dye. Images of 3 fields per insert were taken and the number of migrated cells per field were quantified using the ImageProPlus software. Data were analyzed for the average number of the migrated cells and standard deviation of six data points for each treatment condition. […] Statistic p values were computed using the Student's t-test.

spleen cells = experiment: Th1/Th2 cytokine profiling assay (Ovalbumin-restimulated spleen cells, CBA Kit); settings: 10 micrograms per ml; Ovalbumin restimulation; 72 hours
Source text: The Balb/c mice (originated in 1923, it is a popular strain and is used in many different research disciplines. Also classified as an inbred from the production of 20 or more successive brother-sister matings, the Balb/c mouse is albino and small in size) were immunized on Days 1, 15, and 29 with Ovalbumin (Ovalbumin is the main protein found in egg white, commonly used to stimulate an immunological reaction in test animals) in PBS (5 micrograms/injection). On day 50, spleens of the mice were harvested (3 weeks after last boost with Ovalbumin). Cells were cultured (2×10^5/well in triplicate) and incubated with culture medium or test peptides—10 micrograms per ml—for 30 min. Thereafter, additional Ovalbumin was added to the cells at 10 micrograms/ml for in vitro restimulation of the cells. 72 hours later, cell supernatants were harvested and assayed using the Becton Dickinson Mouse Th1/Th2 Cytokine CBA Kit. This kit can be used to measure Interleukin-2 (IL-2), Interleukin-4 (IL-4), Interleukin-5 (IL-5), Interferon-γ (IFN-γ), and Tumor Necrosis Factor-α (TNF-α) protein levels in a single sample. The kit performance has been optimized for analysis of physiologically relevant concentrations (pg/ml levels) of specific cytokine proteins in tissue culture supernatants and serum samples.

HUVEC = experiment: Endothelial tube formation assay; settings: 10 micrograms per ml, 20 hours, combination peptide 1:peptide 2 1.10 mole:0.90 mole
Description: The endothelial tube formation assay is based on the ability of endothelial cells to form three-dimensional capillary-like tubular structures when cultured on a gel of basement membrane extract. […] Pre-labeled HUVEC with Calcein AM were seeded in a 96-well culture plate coated with extracellular metrix (Chemicon international Cat. ECM625) and treated with test peptides—10 micrograms per ml—in full growth medium. Positive control was vehicle only. The endothelial cells were allowed to form tubes foe 20 hours and were then examined under an inverted fluorescent microscope. Duplicate wells for each treatment were photographed and quantitatevily analyzed for an average tubule length using image analysis software ImageProPlus. Raw data were expressed as average tubule lenghs in pixels±standard deviation. Statistic p values were computed using the Student's t-test.

RAW 264.7 cells = experiment: Phagocytosis assay (Fluorescein-labeled Escherichia coli, flow cytometry); settings: 10 micrograms per ml, combination peptide 1 : peptide 2 1.10 mole : 0.90 mole
Description: RAW 264.7 (Mouse leukaemic monocyte macrophage cell line) cells were obtained from ATCC and grown in RPMI 1640 medium containing 10% FBS. Cells were incubated in 12×75 mm tubes at 37° C. with test peptides—10 micrograms per ml—for 30 min prior to adding Fluorescein-labeled Escherichia coli bacteria as the agent to be ingested. After the cells were incubated for additional 60 min at 37° C. and allowed to ingest the Fluorescein-labeled Escherichia coli bacteria, cells were fixed with 1% paraformaldehyde. The samples were then analyzed by flow cytometry to determine the amount of phagocytosis as a function of brightness (the greater the phagocytic activity, the more fluorescence in the macrophage population). Data are reported as % positive and the mean fluorescence intensity (MFI) of positively stained cells.

Cc1cn([C@H]2C[C@H](N=[N+]=[N-])[C@@H](CO)O2)c(=O)[nH]c1=O [AZT]
antiviral activity of positive control compounds (HIV-1) (HIV-1IIIB): expected levels of antiviral activity

CC(C)(C)NC(=O)[C@@H]1CN(Cc2cccnc2)CCN1C[C@@H](O)C[C@@H](Cc1ccccc1)C(=O)N[C@H]1c2ccccc2C[C@H]1O [indinavir]
antiviral activity of positive control compounds (HIV-1) (HIV-1IIIB): expected levels of antiviral activity

Val-Tyr-Pro-Asn-Gly-Ala-Glu-Asp-Glu-Ser-Ala-Glu-Ala-Phe-Pro-Leu-Glu-Phe-OH (VYPNGAEDESAEAFPLEF-OH) [peptide 2]
inhibition of HCMV plaque formation as compared to the virus control (HCMV strain AD169): did not inhibit | inhibition of HBV replication as compared to the virus control infection [1]: 37.6% | inhibition of the migration of human endothelial cells [2]: 38% | IFNγ spleen cells; TH1 response (% of control) (spleen cells): 114.7 % of control | IL-2 spleen cells (% of control) (spleen cells): 53.9 % of control | IL-4 spleen cells; TH2 response (% of control) (spleen cells): 140.5 % of control | IL-5 spleen cells; TH2 response (% of control) (spleen cells): 65.5 % of control | TNF-a spleen cells; TH1 response (% of control) (spleen cells): 118.8 % of control | inhibition of the tube formation of human endothelial cells (HUVEC): did not inhibit | increase on the phagocytic activity of murine macrophages (RAW 264.7 cells): 28.6%
